Data reported in patent US10004701B2, “Methods and compositions for treating infection” (UNIVERSITY OF ROCHESTER, priority 2012, dated 2018).
Structures can show the parent of a compound that is named as a salt. Where two headings read alike, the source gives them in different places.

How the values were obtained:
Assay in all cases: AK assay 384-well format, Prestwick library screening
[1] = test system: A. baumannii strain 98-37-09; type: cell-based, Acinetobacter baumannii; conditions: for fold induction at 50 µM: Acinetobacter baumannii, 983709, 3 h
E. coli = type: cell-based, Escherichia coli; conditions: 50 μM final drug concentration; for fold induction at 50 µM: Escherichia coli, 3 h
P. aeruginosa = type: cell-based, Pseudomonas aeruginosa; conditions: for fold induction at 50 µM: Pseudomonas aeruginosa, 3 h
E. faecium = type: cell-based, Enterococcus faecium; conditions: for fold induction at 50 µM: Enterococcus faecium, 3 h
E. cloacae = type: cell-based, Enterobacter cloacae; conditions: for fold induction at 50 µM: Enterobacter cloacae, 3 h
K. pneumoniae = type: cell-based, Klebsiella pneumoniae; conditions: for fold induction at 50 µM: Klebsiella pneumoniae, 3 h
[2] = test system: S. aureus strain USA300-0114; type: cell-based, Staphylococcus aureus; conditions: for fold induction at 50 µM: Staphylococcus aureus, USA300, 3 h
[3] = 50 μM final drug concentration, cutoff for positive-scoring molecules 3-fold increase, read-out: AK-based Prestwick Library Screening Results, A. baumannii (fold increase in extracellular AK activity)
[4] = cutoff for positive-scoring molecules 3-fold increase, read-out: AK-based Prestwick Library Screening Results, E. coli (fold increase in extracellular AK activity)
[5] = 50 μM final drug concentration, cutoff for positive-scoring molecules 3-fold increase, read-out: AK-based Prestwick Library Screening Results, P. aeruginosa (fold increase in extracellular AK activity)
[6] = 50 μM final drug concentration, cutoff for positive-scoring molecules 3-fold increase, read-out: AK-based Prestwick Library Screening Results, E. faecium (fold increase in extracellular AK activity)
[7] = 50 μM final drug concentration, cutoff for positive-scoring molecules 3-fold increase, read-out: AK-based Prestwick Library Screening Results, E. cloacae (fold increase in extracellular AK activity)
[8] = 50 μM final drug concentration, cutoff for positive-scoring molecules 3-fold increase, read-out: AK-based Prestwick Library Screening Results, K. pneumoniae (fold increase in extracellular AK activity)
[9] = 50 μM final drug concentration, cutoff for positive-scoring molecules 3-fold increase, read-out: AK-based Prestwick Library Screening Results, S. aureus (fold increase in extracellular AK activity)
[10] = 50 μM final drug concentration, cutoff for positive-scoring molecules 3-fold increase

SMILES: COc1cc(NS(=O)(=O)c2ccc(N)cc2)nc(OC)n1 [Sulfadimethoxine]
- fold induction at 50 µM ([1]; 50 μM final drug concentration, planktonic, cutoff for positive-scoring molecules 3-fold increase, read-out: AK-based Prestwick Library Screening Results, A. baumannii (fold increase in extracellular AK activity)): 0.9
- fold induction at 50 µM (E. coli; planktonic, cutoff for positive-scoring molecules 3-fold increase, read-out: AK-based Prestwick Library Screening Results, E. coli (fold increase in extracellular AK activity)): 0.6
- fold induction at 50 µM (P. aeruginosa; 50 μM final drug concentration, planktonic, cutoff for positive-scoring molecules 3-fold increase, read-out: AK-based Prestwick Library Screening Results, P. aeruginosa (fold increase in extracellular AK activity)): 0.4
- fold induction at 50 µM (E. faecium; 50 μM final drug concentration, planktonic, cutoff for positive-scoring molecules 3-fold increase, read-out: AK-based Prestwick Library Screening Results, E. faecium (fold increase in extracellular AK activity)): 0.9
- fold induction at 50 µM (E. cloacae; 50 μM final drug concentration, planktonic, cutoff for positive-scoring molecules 3-fold increase, read-out: AK-based Prestwick Library Screening Results, E. cloacae (fold increase in extracellular AK activity)): 0.4
- fold induction at 50 µM (K. pneumoniae; 50 μM final drug concentration, planktonic, cutoff for positive-scoring molecules 3-fold increase, read-out: AK-based Prestwick Library Screening Results, K. pneumoniae (fold increase in extracellular AK activity)): 0.5
- fold induction at 50 µM ([2]; 50 μM final drug concentration, planktonic, cutoff for positive-scoring molecules 3-fold increase, read-out: AK-based Prestwick Library Screening Results, S. aureus (fold increase in extracellular AK activity)): 0.5

SMILES: Cc1c(C)c2c(c(C)c1O)CC[C@@](C)(CCC[C@H](C)CCC[C@H](C)CCCC(C)C)O2 [Tocopherol (R,S)]
- AK-based Prestwick Library Screening Results: A. baumannii (increase in extracellular AK activity) ([1]; planktonic A. baumannii, 50 μM final drug concentration, 384-well, cutoff for positive-scoring molecules 3-fold increase): 0.4
- AK-based Prestwick Library Screening Results: E. coli (increase in extracellular AK activity) (E. coli; planktonic E. coli, 384-well, cutoff for positive-scoring molecules 3-fold increase): 0.6
- AK-based Prestwick Library Screening Results: P. aeruginosa (increase in extracellular AK activity) (P. aeruginosa; planktonic P. aeruginosa, 50 μM final drug concentration, 384-well, cutoff for positive-scoring molecules 3-fold increase): 0.4
- AK-based Prestwick Library Screening Results: E. faecium (increase in extracellular AK activity) (E. faecium; planktonic E. faecium, 50 μM final drug concentration, 384-well, cutoff for positive-scoring molecules 3-fold increase): 0.9
- AK-based Prestwick Library Screening Results: E. cloacae (increase in extracellular AK activity) (E. cloacae; planktonic E. cloacae, 50 μM final drug concentration, 384-well, cutoff for positive-scoring molecules 3-fold increase): 0.4
- AK-based Prestwick Library Screening Results: K. pneumoniae (increase in extracellular AK activity) (K. pneumoniae; planktonic K. pneumoniae, 50 μM final drug concentration, 384-well, cutoff for positive-scoring molecules 3-fold increase): 0.4
- AK-based Prestwick Library Screening Results: S. aureus (increase in extracellular AK activity) ([2]; planktonic S. aureus, 50 μM final drug concentration, 384-well, cutoff for positive-scoring molecules 3-fold increase): 0.4

SMILES: C[C@@H]1CC[C@@]2(NC1)O[C@H]1C[C@H]3[C@@H]4CC=C5C[C@@H](O)CC[C@]5(C)[C@H]4CC[C@]3(C)[C@H]1[C@@H]2C [Solasodine]
- fold induction at 50 µM ([1]; 50 μM final drug concentration, planktonic, […], read-out: AK-based Prestwick Library Screening Results, A. baumannii (fold increase in extracellular AK activity)): 0.7
- fold induction at 50 µM (E. coli; planktonic, […], read-out: AK-based Prestwick Library Screening Results, E. coli (fold increase in extracellular AK activity)): 1
- fold induction at 50 µM (P. aeruginosa; 50 μM final drug concentration, planktonic, […], read-out: AK-based Prestwick Library Screening Results, P. aeruginosa (fold increase in extracellular AK activity)): 1
- fold induction at 50 µM (E. faecium; 50 μM final drug concentration, planktonic, […], read-out: AK-based Prestwick Library Screening Results, E. faecium (fold increase in extracellular AK activity)): 0.9
- fold induction at 50 µM (E. cloacae; 50 μM final drug concentration, planktonic, […], read-out: AK-based Prestwick Library Screening Results, E. cloacae (fold increase in extracellular AK activity)): 0.9
- fold induction at 50 µM (K. pneumoniae; 50 μM final drug concentration, planktonic, […], read-out: AK-based Prestwick Library Screening Results, K. pneumoniae (fold increase in extracellular AK activity)): 0.7
- fold induction at 50 µM ([2]; 50 μM final drug concentration, planktonic, […], read-out: AK-based Prestwick Library Screening Results, S. aureus (fold increase in extracellular AK activity)): 0.6

SMILES: COc1cc(C(=O)OCCCN2CCCN(CCCOC(=O)c3cc(OC)c(OC)c(OC)c3)CC2)cc(OC)c1OC [Dilazep dihydrochloride]
- fold induction at 50 µM ([1]; planktonic A. baumannii, 50 μM final drug concentration, 384-well, cutoff for positive-scoring molecules 3-fold increase, read-out: AK-based Prestwick Library Screening Results: A. baumannii (increase in extracellular AK activity)): 1.4
- fold induction at 50 µM (E. coli; planktonic E. coli, 384-well, cutoff for positive-scoring molecules 3-fold increase, read-out: AK-based Prestwick Library Screening Results: E. coli (increase in extracellular AK activity)): 1.5
- fold induction at 50 µM (P. aeruginosa; planktonic P. aeruginosa, 50 μM final drug concentration, 384-well, cutoff for positive-scoring molecules 3-fold increase, read-out: AK-based Prestwick Library Screening Results: P. aeruginosa (increase in extracellular AK activity)): 1.3
- fold induction at 50 µM (E. faecium; planktonic E. faecium, 50 μM final drug concentration, 384-well, cutoff for positive-scoring molecules 3-fold increase, read-out: AK-based Prestwick Library Screening Results: E. faecium (increase in extracellular AK activity)): 1.1
- fold induction at 50 µM (E. cloacae; planktonic E. cloacae, 50 μM final drug concentration, 384-well, cutoff for positive-scoring molecules 3-fold increase, read-out: AK-based Prestwick Library Screening Results: E. cloacae (increase in extracellular AK activity)): 1.1
- fold induction at 50 µM (K. pneumoniae; planktonic K. pneumoniae, 50 μM final drug concentration, 384-well, cutoff for positive-scoring molecules 3-fold increase, read-out: AK-based Prestwick Library Screening Results: K. pneumoniae (increase in extracellular AK activity)): 1.4
- fold induction at 50 µM ([2]; planktonic S. aureus, 50 μM final drug concentration, 384-well, cutoff for positive-scoring molecules 3-fold increase, read-out: AK-based Prestwick Library Screening Results: S. aureus (increase in extracellular AK activity)): 1.2

SMILES: CNC(=C[N+](=O)[O-])NCCSCc1csc(CN(C)C)n1 [Nizatidine]
- fold induction at 50 µM [1, 3]: 1
- fold induction at 50 µM (E. coli; [4]): 1.3
- fold induction at 50 µM (P. aeruginosa; [5]): 1.2
- fold induction at 50 µM (E. faecium; [6]): 1
- fold induction at 50 µM (E. cloacae; [7]): 1.7
- fold induction at 50 µM (K. pneumoniae; [8]): 0.9
- fold induction at 50 µM [2, 9]: 1.2

SMILES: CC[N+](C)(CC)CCC[n+]1c(-c2ccccc2)c2cc(N)ccc2c2ccc(N)cc21.[I-].[I-] [Propidium iodide]
- AK-based Prestwick Library Screening Results, A. baumannii (fold increase in extracellular AK activity) [1, 10]: 1.1
- AK-based Prestwick Library Screening Results, E. coli (fold increase in extracellular AK activity) (E. coli; cutoff for positive-scoring molecules 3-fold increase): 1.3
- AK-based Prestwick Library Screening Results, P. aeruginosa (fold increase in extracellular AK activity) (P. aeruginosa; [10]): 1.0
- AK-based Prestwick Library Screening Results, E. faecium (fold increase in extracellular AK activity) (E. faecium; [10]): 0.8
- AK-based Prestwick Library Screening Results, E. cloacae (fold increase in extracellular AK activity) (E. cloacae; [10]): 1.6
- AK-based Prestwick Library Screening Results, K. pneumoniae (fold increase in extracellular AK activity) (K. pneumoniae; [10]): 0.8
- AK-based Prestwick Library Screening Results, S. aureus (fold increase in extracellular AK activity) [2, 10]: 1.4

SMILES: CC(C(=O)O)c1cccc(C(=O)c2ccccc2)c1 (stereo not drawn) [Ketoprofen]
- fold induction at 50 µM ([1]; read-out: AK-based Prestwick Library Screening Results: A. baumannii (increase in extracellular AK activity)): 1
- fold induction at 50 µM (E. coli; planktonic E. coli, 384-well, […], read-out: AK-based Prestwick Library Screening Results: E. coli (increase in extracellular AK activity)): 1.1
- fold induction at 50 µM (P. aeruginosa; read-out: AK-based Prestwick Library Screening Results: P. aeruginosa (increase in extracellular AK activity)): 1
- fold induction at 50 µM (E. faecium; read-out: AK-based Prestwick Library Screening Results: E. faecium (increase in extracellular AK activity)): 0.9
- fold induction at 50 µM (E. cloacae; read-out: AK-based Prestwick Library Screening Results: E. cloacae (increase in extracellular AK activity)): 1.5
- fold induction at 50 µM (K. pneumoniae; read-out: AK-based Prestwick Library Screening Results: K. pneumoniae (increase in extracellular AK activity)): 1.1
- fold induction at 50 µM ([2]; read-out: AK-based Prestwick Library Screening Results: S. aureus (increase in extracellular AK activity)): 1

SMILES: CN1CCN(CC(=O)N2c3ccccc3C(=O)Nc3cccnc32)CC1 [Pirenzepine dihydrochloride]
- fold induction at 50 µM ([1]; 50 μM final drug concentration, 384-well format, cutoff for positive-scoring molecules 3-fold increase, read-out: AK-based Prestwick Library Screening Results, A. baumannii (increase in extracellular AK activity)): 1.1
- fold induction at 50 µM (E. coli; 384-well format, cutoff for positive-scoring molecules 3-fold increase, read-out: AK-based Prestwick Library Screening Results, E. coli (increase in extracellular AK activity)): 1.4
- fold induction at 50 µM (P. aeruginosa; 50 μM final drug concentration, 384-well format, cutoff for positive-scoring molecules 3-fold increase, read-out: AK-based Prestwick Library Screening Results, P. aeruginosa (increase in extracellular AK activity)): 1
- fold induction at 50 µM (E. faecium; 50 μM final drug concentration, 384-well format, cutoff for positive-scoring molecules 3-fold increase, read-out: AK-based Prestwick Library Screening Results, E. faecium (increase in extracellular AK activity)): 1.1
- fold induction at 50 µM (E. cloacae; 50 μM final drug concentration, 384-well format, cutoff for positive-scoring molecules 3-fold increase, read-out: AK-based Prestwick Library Screening Results, E. cloacae (increase in extracellular AK activity)): 1.4
- fold induction at 50 µM (K. pneumoniae; 50 μM final drug concentration, 384-well format, cutoff for positive-scoring molecules 3-fold increase, read-out: AK-based Prestwick Library Screening Results, K. pneumoniae (increase in extracellular AK activity)): 1
- fold induction at 50 µM ([2]; 50 μM final drug concentration, 384-well format, cutoff for positive-scoring molecules 3-fold increase, read-out: AK-based Prestwick Library Screening Results, S. aureus (increase in extracellular AK activity)): 1

SMILES: CN(C)[C@@H]1C(O)=C(C(=O)NCN2CCCC2)C(=O)[C@@]2(O)C(O)=C3C(=O)c4c(O)cccc4[C@@](C)(O)[C@H]3C[C@@H]12 [Rolitetracycline]
- fold induction at 50 µM [1, 3]: 1.2
- fold induction at 50 µM (E. coli; [4]): 1.1
- fold induction at 50 µM (P. aeruginosa; [5]): 1.1
- fold induction at 50 µM (E. faecium; [6]): 1
- fold induction at 50 µM (E. cloacae; [7]): 1.7
- fold induction at 50 µM (K. pneumoniae; [8]): 1
- fold induction at 50 µM [2, 9]: 1.1
